≈ marks a conversion by molar mass, not a printed value.
Assays:
U87-MG = assay: Solid tumor cell growth inhibition, MTT, 72 h; assay type: cell-based; settings: Homo sapiens, U-87 MG
Outline: (§1)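 Viable cell concentration served as the readout. Cells (6000 per well) grown in DMEM High Glucose containing 10% FBS received the derivatives at several concentrations following an initial day of culture at 37° C, 5% CO2.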

PC-3 = assay: Solid tumor cell growth inhibition, MTT, 72 h; assay type: cell-based; settings: Homo sapiens
Outline: as §1

Becap-37 = assay: Solid tumor cell growth inhibition, MTT, 72 h; assay type: cell-based; settings: Homo sapiens
Outline: as §1

PANC-1 = assay: Solid tumor cell growth inhibition, MTT, 72 h; assay type: cell-based; settings: Homo sapiens
Outline: as §1

RKO = assay: Solid tumor cell growth inhibition, MTT, 72 h; assay type: cell-based; settings: Homo sapiens
Outline: as §1

SK-OV-3 = assay: Solid tumor cell growth inhibition, MTT, 72 h; assay type: cell-based; settings: Homo sapiens, SK-OV-3, 72 h, MTT; for IC50: read-out: IC50 SK-OV-3; for IC90: read-out: IC90 SK-OV-3
Outline: as §1

MG-63 = assay: Solid tumor cell growth inhibition, MTT, 72 h; assay type: cell-based; settings: Homo sapiens
Outline: as §1

A549 = assay: Solid tumor cell growth inhibition, MTT, 72 h; assay type: cell-based; settings: Homo sapiens
Outline: as §1

Hep G2 = assay: Solid tumor cell growth inhibition, MTT, 72 h; assay type: cell-based; settings: Homo sapiens, HepG2
Outline: as §1

CaEs-17 = assay: Solid tumor cell growth inhibition, MTT, 72 h; assay type: cell-based; settings: Homo sapiens, CaEs17
Outline: as §1

RPMI 8226 = assay: Multiple myeloma cell growth inhibition, MTT, 72 h; assay type: cell-based; settings: Homo sapiens
Outline: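 Growth inhibition by MTT after 72 h drug exposure (37 °C, 5% CO2) over a concentration range of oridonin derivatives. RPMI 8226 cells plated at 6000 per well and dosed the following day.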

H9 = assay: Leukemia cell growth inhibition, MTT, 72 h; assay type: cell-based, human; settings: Homo sapiens, H9; 72 h, MTT
Outline: (§2)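 MTT read-out of viable cell concentration after 72 hours of exposure at 37° C under 5% CO2. Compounds were dosed at several concentrations one day after plating 6000 cells per well.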

Jurkat = assay: Leukemia cell growth inhibition, MTT, 72 h; assay type: cell-based, human; settings: Homo sapiens, Jurkat; 72 h, MTT
Outline: as §2

NB4 = assay: Leukemia cell growth inhibition, MTT, 72 h; assay type: cell-based, human; settings: Homo sapiens, NB-4; 72 h, MTT
Outline: as §2

Hep-2 = assay: Solid tumor cell growth inhibition, MTT, 72 h; assay type: cell-based, human; settings: Homo sapiens, HEp-2; 72 h, MTT
Outline: as §1

CNE = assay: Solid tumor cell growth inhibition, MTT, 72 h; assay type: cell-based, human; settings: Homo sapiens, CNE; 72 h, MTT
Outline: as §1

MGC-803 = assay: Solid tumor cell growth inhibition, MTT, 72 h; assay type: cell-based, human; settings: Homo sapiens, MGC-803; 72 h, MTT
Outline: as §1

Hela = assay: Solid tumor cell growth inhibition, MTT, 72 h; assay type: cell-based, human; settings: Homo sapiens, HeLa; 72 h, MTT
Outline: as §1

Kasumi-1 = assay: Leukemia cell growth inhibition, MTT, 72 h; assay type: cell-based; settings: Homo sapiens
Outline: as §2

K562/ADR = assay: Leukemia cell growth inhibition, MTT, 72 h; assay type: cell-based; settings: Homo sapiens
Outline: as §2

Structure (SMILES)	IC50 (U87-MG) [µg/mL]	IC90 (U87-MG) [µg/mL]	IC50 (PC-3) [µg/mL]	IC90 (PC-3) [µg/mL]	IC50 (Becap-37) [µg/mL]	IC90 (Becap-37) [µg/mL]	IC50 (PANC-1) [µg/mL]	IC90 (PANC-1) [µg/mL]	IC50 (RKO) [µg/mL]	IC90 (RKO) [µg/mL]	IC50 (SK-OV-3) [µg/mL]	IC90 (SK-OV-3) [µg/mL]	IC50 (MG-63) [µg/mL]	IC90 (MG-63) [µg/mL]	IC50 (A549) [µg/mL]	IC90 (A549) [µg/mL]	IC50 (Hep G2) [µg/mL]	IC90 (Hep G2) [µg/mL]	IC50 (CaEs-17) [µg/mL]	IC90 (CaEs-17) [µg/mL]	other results
C=C1C(=O)[C@]23[C@H](OC(=O)C4CCN(S(=O)(=O)c5ccccc5[N+](=O)[O-])CC4)[C@H]1CC[C@H]2[C@@]12CO[C@@]3(O)[C@@H](O)[C@@H]1C(C)(C)CCC2=O [BS-OR-034]	2.16 (≈ 3.28 µM)	6.75 (≈ 10.2 µM)	3.88 (≈ 5.89 µM)	9.45 (≈ 14.3 µM)	3.24 (≈ 4.92 µM)	10.1 (≈ 15.4 µM)	4.99 (≈ 7.58 µM)	11.9 (≈ 18.1 µM)	1.21 (≈ 1.84 µM)	1.97 (≈ 2.99 µM)	3.88 (≈ 5.89 µM)	9.45 (≈ 14.3 µM)	1.28 (≈ 1.94 µM)	3.22 (≈ 4.89 µM)	6.43 (≈ 9.76 µM)	11.9 (≈ 18.1 µM)	3.81 (≈ 5.78 µM)	> 16	3.48 (≈ 5.28 µM)	11 (≈ 16.7 µM)	IC50 (RPMI 8226): 1.48 µg/mL (≈ 2.25 µM); IC90 (RPMI 8226): 3.83 µg/mL (≈ 5.81 µM); IC50 (H9): 0.78 µg/mL (≈ 1.18 µM); IC90 (H9): 1.73 µg/mL (≈ 2.63 µM); IC50 (Jurkat): 1.32 µg/mL (≈ 2 µM); IC90 (Jurkat): 5.36 µg/mL (≈ 8.14 µM); IC50 (NB4): 0.5 µg/mL (≈ 0.759 µM); IC90 (NB4): 1.94 µg/mL (≈ 2.95 µM); IC50 (Hep-2): 3.97 µg/mL (≈ 6.03 µM); IC90 (Hep-2): 13.3 µg/mL (≈ 20.3 µM); IC50 (CNE): 3.73 µg/mL (≈ 5.66 µM); IC90 (CNE): 10.2 µg/mL (≈ 15.6 µM); IC50 (MGC-803): 2.89 µg/mL (≈ 4.39 µM); IC90 (MGC-803): 8.83 µg/mL (≈ 13.4 µM); IC50 (Hela): 2.98 µg/mL (≈ 4.52 µM); IC90 (Hela): 7.76 µg/mL (≈ 11.8 µM); IC50 (Kasumi-1): 1.58 µg/mL (≈ 2.4 µM); IC90 (Kasumi-1): 3.46 µg/mL (≈ 5.25 µM); IC50 (K562/ADR): 1.52 µg/mL (≈ 2.31 µM); IC90 (K562/ADR): 4.77 µg/mL (≈ 7.24 µM)
C=C1C(=O)[C@]23[C@H](OC(=O)C4CCN(S(=O)(=O)c5cccc([N+](=O)[O-])c5)CC4)[C@H]1CC[C@H]2[C@@]12CO[C@@]3(O)[C@@H](O)[C@@H]1C(C)(C)CCC2=O [BS-OR-037]	1.86 (≈ 2.82 µM)	4.68 (≈ 7.1 µM)	3.48 (≈ 5.28 µM)	7.08 (≈ 10.7 µM)	2.75 (≈ 4.17 µM)	7.47 (≈ 11.3 µM)	4.98 (≈ 7.56 µM)	11.1 (≈ 16.8 µM)	0.91 (≈ 1.38 µM)	1.84 (≈ 2.79 µM)	3.48 (≈ 5.28 µM)	7.08 (≈ 10.7 µM)	1.2 (≈ 1.82 µM)	3.1 (≈ 4.71 µM)	5.72 (≈ 8.68 µM)	10.1 (≈ 15.4 µM)	3.33 (≈ 5.06 µM)	> 16	3.07 (≈ 4.66 µM)	11.2 (≈ 16.9 µM)	IC50 (RPMI 8226): 1.7 µg/mL (≈ 2.58 µM); IC90 (RPMI 8226): 3.73 µg/mL (≈ 5.66 µM); IC50 (H9): 1.64 µg/mL (≈ 2.49 µM); IC90 (H9): 3.46 µg/mL (≈ 5.25 µM); IC50 (Jurkat): 1.16 µg/mL (≈ 1.76 µM); IC90 (Jurkat): 4.4 µg/mL (≈ 6.68 µM); IC50 (NB4): 0.35 µg/mL (≈ 0.531 µM); IC90 (NB4): 1.66 µg/mL (≈ 2.52 µM); IC50 (Hep-2): 3.58 µg/mL (≈ 5.43 µM); IC90 (Hep-2): 15.3 µg/mL (≈ 23.2 µM); IC50 (CNE): 2.95 µg/mL (≈ 4.48 µM); IC90 (CNE): 8.76 µg/mL (≈ 13.3 µM); IC50 (MGC-803): 3.18 µg/mL (≈ 4.83 µM); IC90 (MGC-803): 6.35 µg/mL (≈ 9.64 µM); IC50 (Hela): 3.41 µg/mL (≈ 5.18 µM); IC90 (Hela): 10.1 µg/mL (≈ 15.3 µM); IC50 (Kasumi-1): 1.41 µg/mL (≈ 2.14 µM); IC90 (Kasumi-1): 3.19 µg/mL (≈ 4.84 µM); IC50 (K562/ADR): 1.32 µg/mL (≈ 2 µM); IC90 (K562/ADR): 3.6 µg/mL (≈ 5.47 µM)
C=C1C(=O)[C@]23[C@H](OC(=O)C4CCN(S(=O)(=O)CC)CC4)[C@H]1CC[C@H]2[C@@]12CO[C@@]3(O)[C@@H](O)[C@@H]1C(C)(C)CCC2=O [BS-OR-038]	1.98 (≈ 3.5 µM)	6.78 (≈ 12 µM)	5.3 (≈ 9.37 µM)	11.6 (≈ 20.5 µM)	3.04 (≈ 5.37 µM)	7.59 (≈ 13.4 µM)	4.7 (≈ 8.31 µM)	11.4 (≈ 20.1 µM)	1.01 (≈ 1.79 µM)	1.93 (≈ 3.41 µM)	5.3 (≈ 9.37 µM)	11.6 (≈ 20.5 µM)	0.95 (≈ 1.68 µM)	4.89 (≈ 8.64 µM)	6.1 (≈ 10.8 µM)	10.2 (≈ 18 µM)	3.37 (≈ 5.96 µM)	13.2 (≈ 23.3 µM)	2.18 (≈ 3.85 µM)	7.64 (≈ 13.5 µM)	IC50 (RPMI 8226): 0.97 µg/mL (≈ 1.71 µM); IC90 (RPMI 8226): 3.58 µg/mL (≈ 6.33 µM); IC50 (H9): 1.42 µg/mL (≈ 2.51 µM); IC90 (H9): 3.01 µg/mL (≈ 5.32 µM); IC50 (Jurkat): 1.36 µg/mL (≈ 2.4 µM); IC90 (Jurkat): 5.91 µg/mL (≈ 10.4 µM); IC50 (NB4): 0.44 µg/mL (≈ 0.778 µM); IC90 (NB4): 2.63 µg/mL (≈ 4.65 µM); IC50 (Hep-2): 4.34 µg/mL (≈ 7.67 µM); IC90 (Hep-2): 13.9 µg/mL (≈ 24.6 µM); IC50 (CNE): 3.29 µg/mL (≈ 5.82 µM); IC90 (CNE): 10.9 µg/mL (≈ 19.2 µM); IC50 (MGC-803): 3.36 µg/mL (≈ 5.94 µM); IC90 (MGC-803): 9.55 µg/mL (≈ 16.9 µM); IC50 (Hela): 3.01 µg/mL (≈ 5.32 µM); IC90 (Hela): 6.16 µg/mL (≈ 10.9 µM); IC50 (Kasumi-1): 1.1 µg/mL (≈ 1.94 µM); IC90 (Kasumi-1): 3.95 µg/mL (≈ 6.98 µM); IC50 (K562/ADR): 1.43 µg/mL (≈ 2.53 µM); IC90 (K562/ADR): 3.92 µg/mL (≈ 6.93 µM)
C=C1C(=O)[C@]23[C@H](OC(=O)C4CCC(NC(=O)c5ccccn5)CC4)[C@H]1CC[C@H]2[C@@]12CO[C@@]3(O)[C@@H](O)[C@@H]1C(C)(C)CCC2=O (stereo partly shown) [BS-OR-083]	1.29 (≈ 2.18 µM)	4.61 (≈ 7.78 µM)	3.16 (≈ 5.33 µM)	6.8 (≈ 11.5 µM)	2.21 (≈ 3.73 µM)	6.5 (≈ 11 µM)	3.14 (≈ 5.3 µM)	9.16 (≈ 15.5 µM)	0.68 (≈ 1.15 µM)	1.68 (≈ 2.83 µM)	3.16 (≈ 5.33 µM)	6.8 (≈ 11.5 µM)	0.76 (≈ 1.28 µM)	1.7 (≈ 2.87 µM)	5.07 (≈ 8.55 µM)	11.3 (≈ 19.1 µM)	2.83 (≈ 4.77 µM)	11.9 (≈ 20.1 µM)	1.71 (≈ 2.89 µM)	10.2 (≈ 17.2 µM)	IC50 (RPMI 8226): 0.85 µg/mL (≈ 1.43 µM); IC90 (RPMI 8226): 2.92 µg/mL (≈ 4.93 µM); IC50 (H9): 0.56 µg/mL (≈ 0.945 µM); IC90 (H9): 1.54 µg/mL (≈ 2.6 µM); IC50 (Jurkat): 0.89 µg/mL (≈ 1.5 µM); IC90 (Jurkat): 4.13 µg/mL (≈ 6.97 µM); IC50 (NB4): 0.31 µg/mL (≈ 0.523 µM); IC90 (NB4): 0.99 µg/mL (≈ 1.67 µM); IC50 (Hep-2): 3.13 µg/mL (≈ 5.28 µM); IC90 (Hep-2): 15.5 µg/mL (≈ 26.2 µM); IC50 (CNE): 1.52 µg/mL (≈ 2.56 µM); IC90 (CNE): 4.42 µg/mL (≈ 7.46 µM); IC50 (MGC-803): 1.26 µg/mL (≈ 2.13 µM); IC90 (MGC-803): 5.57 µg/mL (≈ 9.4 µM); IC50 (Hela): 1.92 µg/mL (≈ 3.24 µM); IC90 (Hela): 4.95 µg/mL (≈ 8.35 µM); IC50 (Kasumi-1): 1.09 µg/mL (≈ 1.84 µM); IC90 (Kasumi-1): 2.59 µg/mL (≈ 4.37 µM); IC50 (K562/ADR): 0.58 µg/mL (≈ 0.979 µM); IC90 (K562/ADR): 1.94 µg/mL (≈ 3.27 µM)

Reference: patent US9902736B2, “1-oxo/acylation-14-acylated oridonin derivative, preparation method therefor and application thereof” (HANGZHOU BENSHENG PHARMACEUTICAL CO., LTD., priority 2012, dated 2018)
